Measured values reported in article PMC4537502 (Psychopharmacology, 2015).

Columns and labels:
[1] = target: dopamine D2 receptor (D2R) (Rattus norvegicus, UniProt P61169); test: in vivo; conditions: rat, baseline, mean ± S.D.
Description: Because of limited availability of the test drug, the 60 mg/kg dose group was scanned only with ^11C-raclopride.
After drug administration and about 20 min before each microPET scan, animals were anesthetized with isoflurane (Pharmachemie BV, Haarlem, Netherlands). […] Both tracers were injected as a slow bolus (1 ml of saline-diluted tracer solution infused during a period of 1 min), using a Harvard-style injection pump.
Two rats were scanned in each scan session. They were positioned on heating mats in a microPET Focus 220 system, in transaxial position above each other with their brains in the field of view. Body temperature of the animals was kept close to normal with electronic temperature controllers. Heart rate and oxygen level of the blood during the scan were monitored using pulse oximeters (PulseSense, Nonin). […] A list mode protocol was used with a 76-min acquisition time.
Image reconstruction was performed using microPET Manager 2.3.3.6 (Siemens). The PET data were split according to position along the y-axis, so that a separate data set was acquired for each animal. The list mode data of the emission scans were reframed in a dynamic sequence of 6 × 10, 4 × 30, 2 × 60, 1 × 120, 1 × 180, 4 × 300, and 3 × 600 s (with an additional 960-s frame for the rat that was injected first). The data were reconstructed per time frame employing an iterative reconstruction algorithm (OSEM2D with Fourier rebinning, 4 iterations, and 16 subsets). […] Data sets were corrected for decay, random coincidences, scatter, and attenuation.
In ^11C-raclopride scans of the brain, three-dimensional regions of interest (ROIs) were manually drawn over the left and right striatum and cerebellum, using the program ASIPro 6.3.3.0 (Siemens). […] Time-activity curves (TACs) were generated for these regions (Fig. 1). The results are expressed as dimensionless standardized uptake values (PET-SUV), defined as [(tissue activity concentration (MBq/g) × body weight (g) / injected dose (MBq)]. Brain tissue was assumed to have a specific gravity of 1 g/ml.
Plateau values for the striatum-to-cerebellum ratio were derived from this curve fit.

[2] = plasma radioactivity and metabolite analysis after ^11C-SA4503 injection; type: in vivo; conditions: rat, 60 min, saline-treated
Description: From these samples, 25 μl of whole blood was collected and plasma (25 μl) was then obtained by centrifugation of the remaining sample (5 min at 13,000×g). Radioactivity in plasma and whole blood was determined using a calibrated gamma counter (CompuGamma CS1282, LKB-Wallac, Turku, Finland).

[3] = Biodistribution of ^11C-SA4503-derived radioactivity; type: in vivo; conditions: rat, 80 min after injection, mean ± SEM

dopamine D2 receptor (D2R), sequence (P61169 whole entry): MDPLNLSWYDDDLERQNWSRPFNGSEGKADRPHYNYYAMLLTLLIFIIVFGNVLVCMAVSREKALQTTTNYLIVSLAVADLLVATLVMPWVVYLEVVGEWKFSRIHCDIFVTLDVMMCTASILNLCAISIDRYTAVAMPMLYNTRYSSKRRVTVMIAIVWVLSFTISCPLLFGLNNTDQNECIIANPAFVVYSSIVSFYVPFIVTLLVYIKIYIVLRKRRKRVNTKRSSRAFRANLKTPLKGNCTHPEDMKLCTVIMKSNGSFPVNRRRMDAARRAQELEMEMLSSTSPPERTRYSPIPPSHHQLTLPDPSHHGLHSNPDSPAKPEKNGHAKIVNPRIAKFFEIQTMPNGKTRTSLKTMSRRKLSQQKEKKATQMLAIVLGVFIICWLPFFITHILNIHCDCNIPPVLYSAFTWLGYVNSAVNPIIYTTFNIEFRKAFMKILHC

Compound: CCN1CCC[C@H]1CNC(=O)c1c(O)c(Cl)cc(Cl)c1O[11CH3] (racemic) [^11C-raclopride]
- Target binding of the radioligand (striatum-to-cerebellum ratio at plateau minus one) [1]: 2.85 ± 0.48

Compound: COc1ccc(CCN2CCN(CCCc3ccccc3)CC2)cc1OC [^11C-SA4503, 1-[2-(3,4-dimethoxyphenethyl)]-4-(3-phenylpropyl)piperazine]
- parent tracer (^11C-SA4503) remaining unchanged in plasma [2]: 55%
- Uptake of radioactivity (SUV values), Adipose tissue ([3]; 3 mg/kg pridopidine): 0.27 ± 0.06 SUV
- Uptake of radioactivity (SUV values), Adrenal gland ([3]; 3 mg/kg pridopidine): 23.0 ± 4.1 SUV
- Uptake of radioactivity (SUV values), Bladder ([3]; 3 mg/kg pridopidine): 0.88 ± 0.38 SUV
- Uptake of radioactivity (SUV values), Bone ([3]; 3 mg/kg pridopidine): 0.26 ± 0.03 SUV
- Uptake of radioactivity (SUV values), Bone marrow ([3]; 3 mg/kg pridopidine): 2.62 ± 0.67 SUV
- Uptake of radioactivity (SUV values), Cerebellum ([3]; 3 mg/kg pridopidine): 0.76 ± 0.17 SUV
- Uptake of radioactivity (SUV values), Cerebral cortex ([3]; 3 mg/kg pridopidine): 1.17 ± 0.17 SUV
- Uptake of radioactivity (SUV values), Heart ([3]; 3 mg/kg pridopidine): 0.23 ± 0.01 SUV
- Uptake of radioactivity (SUV values), Intestine (large) ([3]; 3 mg/kg pridopidine): 1.21 ± 0.12 SUV
- Uptake of radioactivity (SUV values), Intestine (small) ([3]; 3 mg/kg pridopidine): 1.93 ± 0.40 SUV
- Uptake of radioactivity (SUV values), Kidney ([3]; 3 mg/kg pridopidine): 2.10 ± 0.09 SUV
- Uptake of radioactivity (SUV values), Liver ([3]; 3 mg/kg pridopidine): 7.71 ± 0.89 SUV
- Uptake of radioactivity (SUV values), Lung ([3]; 3 mg/kg pridopidine): 1.05 ± 0.06 SUV
- Uptake of radioactivity (SUV values), Muscle ([3]; 3 mg/kg pridopidine): 0.13 ± 0.01 SUV
- Uptake of radioactivity (SUV values), Pancreas ([3]; 3 mg/kg pridopidine): 5.02 ± 0.64 SUV
- Uptake of radioactivity (SUV values), Pituitary ([3]; 3 mg/kg pridopidine): 2.13 ± 0.44 SUV
- Uptake of radioactivity (SUV values), Plasma ([3]; 3 mg/kg pridopidine): 0.14 ± 0.02 SUV
- Uptake of radioactivity (SUV values), Red blood cells ([3]; 3 mg/kg pridopidine): 0.07 ± 0.01 SUV
- Uptake of radioactivity (SUV values), Rest brain ([3]; 3 mg/kg pridopidine): 1.10 ± 0.05 SUV
- Uptake of radioactivity (SUV values), Spleen ([3]; 3 mg/kg pridopidine): 2.03 ± 0.12 SUV
- Uptake of radioactivity (SUV values), Submandibular gland ([3]; 3 mg/kg pridopidine): 4.48 ± 0.64 SUV
- Uptake of radioactivity (SUV values), Urine ([3]; 3 mg/kg pridopidine): 1.60 ± 0.87 SUV
- Uptake of radioactivity (SUV values), Adipose tissue ([3]; 15 mg/kg pridopidine): 0.36 ± 0.04 SUV
- Uptake of radioactivity (SUV values), Adrenal gland ([3]; 15 mg/kg pridopidine): 10.7 ± 4.1 SUV
- Uptake of radioactivity (SUV values), Bladder ([3]; 15 mg/kg pridopidine): 0.83 ± 0.22 SUV
- Uptake of radioactivity (SUV values), Bone ([3]; 15 mg/kg pridopidine): 0.44 ± 0.05 SUV
- Uptake of radioactivity (SUV values), Bone marrow ([3]; 15 mg/kg pridopidine): 2.20 ± 0.77 SUV
- Uptake of radioactivity (SUV values), Cerebellum ([3]; 15 mg/kg pridopidine): 0.73 ± 0.03 SUV
- Uptake of radioactivity (SUV values), Cerebral cortex ([3]; 15 mg/kg pridopidine): 0.87 ± 0.05 SUV
- Uptake of radioactivity (SUV values), Heart ([3]; 15 mg/kg pridopidine): 0.38 ± 0.02 SUV
- Uptake of radioactivity (SUV values), Intestine (large) ([3]; 15 mg/kg pridopidine): 0.74 ± 0.08 SUV
- Uptake of radioactivity (SUV values), Intestine (small) ([3]; 15 mg/kg pridopidine): 1.70 ± 0.15 SUV
- Uptake of radioactivity (SUV values), Kidney ([3]; 15 mg/kg pridopidine): 2.07 ± 0.15 SUV
- Uptake of radioactivity (SUV values), Liver ([3]; 15 mg/kg pridopidine): 7.21 ± 0.83 SUV
- Uptake of radioactivity (SUV values), Lung ([3]; 15 mg/kg pridopidine): 1.47 ± 0.04 SUV
- Uptake of radioactivity (SUV values), Muscle ([3]; 15 mg/kg pridopidine): 0.22 ± 0.02 SUV
- Uptake of radioactivity (SUV values), Pancreas ([3]; 15 mg/kg pridopidine): 6.23 ± 0.53 SUV
- Uptake of radioactivity (SUV values), Pituitary ([3]; 15 mg/kg pridopidine): 2.75 ± 0.72 SUV
- Uptake of radioactivity (SUV values), Plasma ([3]; 15 mg/kg pridopidine): 0.28 ± 0.02 SUV
- Uptake of radioactivity (SUV values), Red blood cells ([3]; 15 mg/kg pridopidine): 0.16 ± 0.01 SUV
- Uptake of radioactivity (SUV values), Rest brain ([3]; 15 mg/kg pridopidine): 0.65 ± 0.03 SUV
- Uptake of radioactivity (SUV values), Spleen ([3]; 15 mg/kg pridopidine): 1.99 ± 0.07 SUV
- Uptake of radioactivity (SUV values), Submandibular gland ([3]; 15 mg/kg pridopidine): 5.77 ± 0.39 SUV
- Uptake of radioactivity (SUV values), Urine ([3]; 15 mg/kg pridopidine): 0.50 ± 0.09 SUV
- Uptake of radioactivity (SUV values), Adipose tissue ([3]; Baseline): 0.26 ± 0.05 SUV
- Uptake of radioactivity (SUV values), Adrenal gland ([3]; Baseline): 25.7 ± 3.6 SUV
- Uptake of radioactivity (SUV values), Bladder ([3]; Baseline): 0.70 ± 0.10 SUV
- Uptake of radioactivity (SUV values), Bone ([3]; Baseline): 0.44 ± 0.14 SUV
- Uptake of radioactivity (SUV values), Bone marrow ([3]; Baseline): 2.57 ± 0.47 SUV
- Uptake of radioactivity (SUV values), Cerebellum ([3]; Baseline): 1.95 ± 0.12 SUV
- Uptake of radioactivity (SUV values), Cerebral cortex ([3]; Baseline): 1.97 ± 0.15 SUV
- Uptake of radioactivity (SUV values), Heart ([3]; Baseline): 0.33 ± 0.04 SUV
- Uptake of radioactivity (SUV values), Intestine (large) ([3]; Baseline): 1.72 ± 0.13 SUV
- Uptake of radioactivity (SUV values), Intestine (small) ([3]; Baseline): 2.33 ± 0.28 SUV
- Uptake of radioactivity (SUV values), Kidney ([3]; Baseline): 4.19 ± 0.20 SUV
- Uptake of radioactivity (SUV values), Liver ([3]; Baseline): 6.47 ± 0.63 SUV
- Uptake of radioactivity (SUV values), Lung ([3]; Baseline): 1.98 ± 0.18 SUV
- Uptake of radioactivity (SUV values), Muscle ([3]; Baseline): 0.15 ± 0.02 SUV
- Uptake of radioactivity (SUV values), Pancreas ([3]; Baseline): 4.95 ± 0.74 SUV
- Uptake of radioactivity (SUV values), Pituitary ([3]; Baseline): 3.24 ± 0.03 SUV
- Uptake of radioactivity (SUV values), Plasma ([3]; Baseline): 0.11 ± 0.02 SUV
- Uptake of radioactivity (SUV values), Red blood cells ([3]; Baseline): 0.10 ± 0.03 SUV
- Uptake of radioactivity (SUV values), Rest brain ([3]; Baseline): 2.23 ± 0.31 SUV
- Uptake of radioactivity (SUV values), Spleen ([3]; Baseline): 2.62 ± 0.27 SUV
- Uptake of radioactivity (SUV values), Submandibular gland ([3]; Baseline): 3.60 ± 0.18 SUV
- Uptake of radioactivity (SUV values), Urine ([3]; Baseline): 0.35 ± 0.16 SUV
